“Also recorded” adds a separate entry of the source. Read-outs that look alike come from different tables or passages of the source.
Assays:
Assay type in all cases: cell-based
[1] = system: IL17A-dependent gene expression in mouse keratinocytes; experiment: IL17A-dependent gene expression in mouse keratinocytes (RT-qPCR, secondary assay, FIG. 11); conditions: 10 μM compound, 5 ng/ml IL17A, 24 hours
Experimental: Mouse keratinocytes were cultured and stimulated with 5 ng/ml IL17A for 24 hours. During the treatment, 10 μM of each compound was added, and reverse transcription-quantitative polymerase chain reaction (RT-qPCR) was used for the gene expression level analyses of the following genes: cxcl1, cxcl2, cxcl5, 24p3, zc3h12a, S100a8, and S100a9. The top-down order of the treatment conditions indicated in the legend correspond to the left-right order of the bars for each gene. […] Compounds C770-0711 (2), C770-0720 (3), 60546479 (6), C881-0413 (9), and LAS 51593897 (11) are also of interest (see grey boxes).

[2] = target: T1, IL-17 receptor (the IL-17RA-IL-17RC heterodimer) (Mus musculus, UniProt Q60943+Q8K4C2, F156E); experiment: IL-17A-receptor (IL-17RA/IL-17RC) GFP reporter cell screen; conditions: for IC50 / Emax: reducing IL-17A-receptor reporter activities; for IC50: GFP percentage by microscope, 48 hours; for Emax: maximal effect at high compound concentrations; for specificity for IL-17A-receptor reporter over other cytokine receptor reporters: in words
T1 sequence (Q60943 32-358): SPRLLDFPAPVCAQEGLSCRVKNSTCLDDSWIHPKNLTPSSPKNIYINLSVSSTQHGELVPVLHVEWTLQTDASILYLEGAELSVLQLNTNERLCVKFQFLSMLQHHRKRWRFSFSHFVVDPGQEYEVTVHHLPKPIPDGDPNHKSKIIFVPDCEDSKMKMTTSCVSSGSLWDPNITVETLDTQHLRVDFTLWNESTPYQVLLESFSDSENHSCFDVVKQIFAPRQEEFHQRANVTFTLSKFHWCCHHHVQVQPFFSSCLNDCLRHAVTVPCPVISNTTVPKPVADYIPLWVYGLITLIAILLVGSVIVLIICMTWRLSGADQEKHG
T1 sequence (Q8K4C2 22-500 F156E): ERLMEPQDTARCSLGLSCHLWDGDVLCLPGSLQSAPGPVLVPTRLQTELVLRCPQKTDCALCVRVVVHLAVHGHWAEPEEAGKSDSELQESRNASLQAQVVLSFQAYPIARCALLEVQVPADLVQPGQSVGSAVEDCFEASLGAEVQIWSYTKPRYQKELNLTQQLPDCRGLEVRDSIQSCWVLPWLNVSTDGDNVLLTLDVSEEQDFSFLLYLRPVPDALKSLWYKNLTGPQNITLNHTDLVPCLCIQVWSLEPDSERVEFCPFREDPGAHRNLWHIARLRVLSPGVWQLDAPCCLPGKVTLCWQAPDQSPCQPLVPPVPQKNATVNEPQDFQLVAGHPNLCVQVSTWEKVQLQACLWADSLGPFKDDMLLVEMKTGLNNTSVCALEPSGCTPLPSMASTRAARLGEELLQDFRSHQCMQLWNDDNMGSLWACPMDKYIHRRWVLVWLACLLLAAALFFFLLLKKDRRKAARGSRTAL
T1 sequence (Q62386 26-158 partner): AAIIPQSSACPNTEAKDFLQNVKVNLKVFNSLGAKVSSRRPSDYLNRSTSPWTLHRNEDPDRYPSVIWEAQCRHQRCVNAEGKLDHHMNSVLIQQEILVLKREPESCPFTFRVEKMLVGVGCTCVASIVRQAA
Experimental: (§1) FIG. 5 is a dot plot showing the identification of small-molecule compounds that reduce IL-17A or TNF-a receptor activities. Small-molecule screens were performed with 114,665 compounds. Individual compounds were added to IL-17A-reporters or TNF-a-reporters following the addition of respective ligands such as IL-17A or TNF-a (25 ng/ml). The reporter cells were then incubated for additional 48 hours before subjecting them for microscopic analyses (GFP percentage was measured by microscope). Anti-IL17A and anti-TNFa antibodies were used as the positive controls.
To identify small molecule compounds that control IL-17R activity, a screening platform was used to monitor IL-17a binding to its receptor. Upon IL-17a binding to its receptor subunit A (IL-17RA), another receptor subunit IL-17RC is recruited, and these two subunits form a heterodimer. In the exemplary reporter system, a transcription factor (tTA) was tethered, via a protease cleavage site, to IL-17RA. In addition, a tobacco etch virus (TEV) protease was fused to the receptor subunit IL-17RC. Upon the IL-17a-dependent recruitment of IL-17RC-TEV to IL-17RA-tTA, the tTA is cleaved off from its membrane anchor IL-17RA. The released tTA then enters the nucleus and activates the reporter gene (e.g., in this case, GFP). The IL-17RA/RC reporter system responds highly selectively to IL-17a, but not to other related IL-17 family cytokines (except IL-17f).
(§2) Two thousand reporter cells per well (384-well plates) were seeded in 30 ul cell culture medium with either IL-17A (25 ng/ml, unless otherwise indicated) or TNFa ligand (25 ng/ml, unless otherwise indicated); additional screens were performed with IL-17A at 7.5 ng/ml. Then 100 nl of the individual compound was added by a pin transfer and cultured for two days in a CO2 incubator. For the cell viability test, 10 ul HOECHST 33342 was added and incubated for 10 min, followed by the addition of 10 ul 4% PFA. After a 10 min incubation, the reporter cells were washed twice with phosphate-buffered saline (PBS) and kept in 30 ul PBS. The images were acquired and analyzed using an IMAGEXPRESS confocal microscope. For storage, plates were sealed with black light-absorbing films.

[3] = target: T2, TNF-a receptor (TNF-R1 reporter cells) (Homo sapiens, UniProt P19438); experiment: TNF-a-receptor GFP reporter cell screen; conditions: reducing TNF-a-receptor reporter activities; for IC50: GFP percentage by microscope, 48 hours; for Emax: maximal effect at high compound concentrations
T2 construct: expressed in transfected cells; development described in WO2022125865A2
Experimental: as §1
The IL-17RA/IL-17RC reporter system was used to identify the IL-17a-specific immune modulatory agents, as described herein (see e.g., compounds (1)-(16)). Furthermore, the IL-17A systems and methods were applied to generate other cytokine/cytokine receptor reporter system (tTA fused onto one receptor subunit via a protease cleavage site, TEV fused to another receptor subunit, optimal linkers inserted between different proteins to ensure high signal-to-background ratio; e.g., for identifying TNF-α-specific immune modulatory agents). The screening platform provided herein was used to identify immune modulatory agents including, but not limited to, small molecules and proteins that modulate IL-17A or TNF-α cytokine signaling.
as §2

Row | Structure (SMILES) | IC50 [3] [µM] | Emax [3] [%] | further results
1 | CCN1CCOc2ccccc2CCCC2(CN(C(=O)c3cc(-c4ccccc4F)no3)CCO2)C1=O (racemic) [Compound 11] |  |  | effect on IL17A-dependent gene expression [1]: robust inhibitory effects
2 | CCc1ccc(S(=O)(=O)c2c(C(=O)c3ccccc3)cnc3ccc(CC)cc23)cc1 [Compound 1] |  |  | IC50 [2]: 4.81 µM; Emax [2]: 78%
3 | CCOc1ccc(S(=O)(=O)c2c(C(=O)c3ccc(C)c(C)c3)cnc3ccccc23)cc1 [Compound 2] |  |  | IC50 [2]: 31.4 µM; Emax [2]: 82%; effect on IL17A-dependent gene expression [1]: inhibitory activities
4 | CCOc1ccc(S(=O)(=O)c2c(C(=O)c3ccc(CC)cc3)cnc3ccc(C)cc23)cc1 [Compound 3] |  |  | IC50 [2]: 12.2 µM; Emax [2]: 44%; effect on IL17A-dependent gene expression [1]: inhibitory activities
5 | CCc1ccc(S(=O)(=O)c2c(C(=O)c3ccc(C)c(C)c3)cnc3ccccc23)cc1 [Compound 5] |  |  | IC50 [2]: 6.83 µM; Emax [2]: 57%
6 | O=C(Nc1ccc(Cl)cc1Cl)c1cc(S(=O)(=O)N2CCCCCC2)ccc1F [Compound 7] |  |  | IC50 [2]: 15 µM; Emax [2]: 57%
7 | CCOC(=O)c1ccc(NC(=O)CCc2c(C)nc3c(c(C)nn3C)c2C)cc1 [Compound 8] |  |  | specificity for IL-17A-receptor reporter over other cytokine receptor reporters [2]: reduce IL-17A-, not TNF-a-, receptor reporter activities; Emax ([2]; read-out: Emax): 94%; effect on IL17A-dependent gene expression [1]: inhibitory activities; also recorded: robust inhibitory effects
8 | Cc1ccc(NC(=O)Cn2cc3c(n2)CCCC3)cc1Cl [Compound 9] |  |  | specificity for IL-17A-receptor reporter over other cytokine receptor reporters [2]: reduce IL-17A-, not TNF-a-, receptor reporter activities; Emax ([2]; read-out: Emax): 67%; effect on IL17A-dependent gene expression [1]: inhibitory activities; also recorded: robust inhibitory effects
9 | COc1cccc(CNC(=O)CSC2=Nc3ccccc3N=C(c3ccc(F)cc3)C2)c1 [Compound 12] | 6.3 | 32 | 
10 | COCCn1ccnc1CN(CCO)CCCOc1ccc(Cl)cc1Cl [Compound 13] | 1.95 | 42 | 
11 | CCc1ccccc1NC(=O)CN1C(=O)COc2ccc(S(=O)(=O)Nc3ccccc3)cc21 [Compound 16] | 1.58 | 75 | 
12 | CN(Cc1ccc2nonc2c1)C(=O)C(c1ccc(F)cc1)N1CCCCC1 (centres unmarked) [Compound 17] | 1.46 | 66 | 
13 | O=C(CSC1=Nc2ccccc2N=C(c2ccc(F)cc2)C1)NCc1ccc(F)cc1 [Compound 23] | 5.3 | 76 | 
14 | COc1cccc(-c2nn(-c3ccccc3)cc2CN2CCC(NC(C)=O)C2)c1 (centres unmarked) [Compound 24] | 0.61 | 75 | 
15 | O=C(NCCNC(=O)C(c1ccc(F)cc1)N1CCCCC1)c1ccccc1Cl (centres unmarked) [Compound 25] | 1.67 | 52 | 
16 | CC(C)CN1CCc2[nH]cnc2C12CCN(C(=O)c1cccc(F)c1)CC2 [Compound 27] | 2.16 | 66 | 
17 | Cc1ccc(Cn2c(CNS(=O)(=O)c3ccc(Cl)s3)nc3cccnc32)cc1 [Compound 34] | 0.86 | 64 | 

Row | Structure (SMILES) | IC50 [3] [µM] | Emax [3] [%] | further results
18 | COc1cc(NC(=O)C(Cc2ccccc2)NS(=O)(=O)c2cccs2)cc(OC)c1 (centres unmarked) [Compound 35] | 2.56 | 97 | 
19 | CCOC(=O)c1ccccc1NC(=O)N1CCCN(S(=O)(=O)c2ccc3c(ccn3CC)c2)CC1 [Compound 36] | 7.72 | 92 | 
20 | COc1ccc(NC(=O)C(NS(=O)(=O)c2cccc3nsnc23)c2ccccc2)cc1 (centres unmarked) [Compound 38] | 3.99 | 91 | 
21 | O=C(NC1(CN2CCOCC2)CCCCC1)c1ccccc1N1CCOCC1 [Compound 40] | 2.16 | 76 | 
22 | CS(=O)(=O)c1ccc(C2(C(=O)N3CCSCC3)CCCCC2)cc1 [Compound 41] | 5.89 | 98 | 
23 | Cc1ccc(Cn2c(CNS(=O)(=O)c3ccc(F)c(Cl)c3)nc3cccnc32)cc1 [Compound 45] | 1.3 | 67 | 
24 | O=C(NCc1cccc(Cl)c1)C1(Cc2cscn2)CC2CCC1N2 (centres unmarked) [Compound 48] | 3.62 | 68 | 
25 | COc1cc(CN2CCCC(CNC(=O)COc3ccccc3OC)C2)ccc1F (centres unmarked) [Compound 49] | 0.791 | 87 | 
26 | Oc1cccc(CN2CCCC(NCc3cc(-c4ccccc4)no3)C2)c1 (centres unmarked) [Compound 51] | 0.823 | 85 | 
27 | CCCN(C/C=C/c1ccccc1)C(=O)CCc1cc2n(n1)CCCNC2 [Compound 52] | 8.45 | 90 | 
28 | CC(C)Oc1ccccc1-c1cccc(C(=O)NCCc2nncn2C)c1 [Compound 57] | 2.34 | 47 | 
29 | COc1ccc(NC(=O)CSc2nc3ccccc3n2CC(=O)N(C)C2CCCCC2)cc1 [Compound 60] | 6.98 | 88 | 
30 | CC(C)C1N=C2c3ccccc3N=C(SCC(=O)NCc3ccc(F)cc3)N2C1=O (centres unmarked) [Compound 61] | 8.78 | 88 | 
31 | O=c1n(Cc2cccc3ccccc23)nc(C2CCCNC2)n1-c1ccccc1 (centres unmarked) [Compound 62] | 1.82 | 60 | 
32 | CC(C)(CO)CNC1CC(C)(C)Cc2c1cnn2-c1cccc(F)c1 (centres unmarked) [Compound 63] | 1.78 | 65 | 
33 | COc1cc(C(=O)NCCc2csc3nc(-c4ccccc4C)nn23)cc(OC)c1OC [Compound 64] | 4.85 | 93 | 
34 | O=C(c1ccccc1OC(F)(F)C(F)F)N1CCNC(=O)C12CCCC2 [Compound 76] | 1.35 | 64 | 
